Columns and labels:
oat, wild [1] = assay: Test C postemergence; format: in vivo, Avena fatua; settings: 10 days
How it was run: (§1)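 Visual injury ratings on a 0–100 scale (100 = complete control) were made against untreated controls 10 days after treatment in the greenhouse. Compounds, formulated with surfactant in non-phytotoxic solvent, were sprayed on soil preemergence or onto one- to two-leaf plants 2–10 cm tall postemergence.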

ragweed [2] = assay: Test C postemergence; format: in vivo, Ambrosia artemisiifolia; settings: 10 days
How it was run: as §1

ryegrass, Italian [3] = assay: Test C postemergence; format: in vivo, Lolium multiflorum; settings: 10 days
How it was run: as §1

blackgrass [4] = assay: Test C postemergence; format: in vivo, Alopecurus myosuroides; settings: 10 days
How it was run: as §1

soybean [5] = assay: Test C postemergence; format: in vivo, Glycine max; settings: 10 days
How it was run: as §1

blackgrass [6] = assay: Test C preemergence; format: in vivo, Alopecurus myosuroides; settings: 0 to 100 scale (0 no effect, 100 complete control)
How it was run: as §1

corn [7] = assay: Test C postemergence; format: in vivo, Zea mays; settings: 10 days
How it was run: as §1

oat, wild [8] = assay: Test C preemergence; format: in vivo, Avena fatua; settings: 0 to 100 scale (0 no effect, 100 complete control)
How it was run: as §1

galium = assay: Test C postemergence; format: in vivo, Galium aparine; settings: 10 days
How it was run: as §1

kochia [9] = assay: Test C preemergence; format: in vivo, Bassia scoparia; settings: 0 to 100 scale (0 no effect, 100 complete control)
How it was run: as §1

pigweed, palmer [10] = assay: Test C postemergence; format: in vivo, Amaranthus palmeri; settings: 10 days
How it was run: as §1

ducksalad = assay: Test D flooded paddy test; format: in vivo, Heteranthera limosa; settings: 250 g ai/ha, applied to paddy water, visual rating after 13 to 14 days, scale 0 to 100 (0 no effect, 100 complete control)
How it was run: (§2)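 Plants grown to the 2-leaf stage; pots flooded to 3 cm above soil at treatment and held at that depth throughout. Test compounds applied directly to the paddy water. After 13 to 14 days in a greenhouse, response was rated visually versus controls on a 0 (no effect) to 100 (complete control) scale.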

sedge, umbrella = assay: Test D flooded paddy test; format: in vivo, Cyperus difformis; settings: 250 g ai/ha, applied to paddy water, visual rating after 13 to 14 days, scale 0 to 100 (0 no effect, 100 complete control)
How it was run: as §2

corn [11] = assay: Test C preemergence; format: in vivo, Zea mays; settings: 0 to 100 scale (0 no effect, 100 complete control)
How it was run: as §1

barnyardgrass [12] = assay: Test D flooded paddy test; format: in vivo, Echinochloa crus-galli; settings: 250 g ai/ha, applied to paddy water, visual rating after 13 to 14 days, scale 0 to 100 (0 no effect, 100 complete control)
How it was run: as §2

wheat [13] = assay: Test C postemergence; format: in vivo, Triticum aestivum; settings: 10 days
How it was run: as §1

rice = assay: Test D flooded paddy test; format: in vivo, Oryza sativa; settings: 250 g ai/ha, applied to paddy water, visual rating after 13 to 14 days, scale 0 to 100 (0 no effect, 100 complete control)
How it was run: as §2

green foxtail [14] = assay: Test C postemergence; format: in vivo, Setaria viridis; settings: 10 days
How it was run: as §1

ragweed [15] = assay: Test C preemergence; format: in vivo, Ambrosia artemisiifolia; settings: 0 to 100 scale (0 no effect, 100 complete control)
How it was run: as §1

pigweed, palmer [16] = assay: Test C preemergence; format: in vivo, Amaranthus palmeri; settings: 0 to 100 scale (0 no effect, 100 complete control)
How it was run: as §1

kochia [17] = assay: Test C postemergence; format: in vivo, Bassia scoparia; settings: 10 days
How it was run: as §1

green foxtail [18] = assay: Test C preemergence; format: in vivo, Setaria viridis; settings: 0 to 100 scale (0 no effect, 100 complete control)
How it was run: as §1

barnyardgrass [19] = assay: Test C postemergence; format: in vivo, Echinochloa crusgalli; settings: 10 days
How it was run: as §1

ryegrass, Italian [20] = assay: Test C preemergence; format: in vivo, Lolium multiflorum; settings: 0 to 100 scale (0 no effect, 100 complete control)
How it was run: as §1

barnyardgrass [21] = assay: Test C preemergence; format: in vivo, Echinochloa crusgalli; settings: 0 to 100 scale (0 no effect, 100 complete control)
How it was run: as §1

horseweed = assay: Test C postemergence; format: in vivo, Erigeron canadensis; settings: 10 days
How it was run: as §1

soybean [22] = assay: Test C preemergence; format: in vivo, Glycine max; settings: 0 to 100 scale (0 no effect, 100 complete control)
How it was run: as §1

wheat [23] = assay: Test C preemergence; format: in vivo, Triticum aestivum; settings: 0 to 100 scale (0 no effect, 100 complete control)
How it was run: as §1

[24] = 125 g ai/ha, postemergence, 0 to 100 scale, 0 no effect, 100 complete control
[25] = Postemergence, 500 g ai/ha, visual 0 to 100 scale (0 no effect, 100 complete control)
[26] = Preemergence, 500 g ai/ha, visual rating after 10 days
[27] = Test C, preemergence, 125 g ai/ha

Cc1ccc(-n2cnc(C3(C)CCC3)n2)cc1C(=O)N1C[C@H](C)Oc2c(Cl)cccc21 [Compound 167]
90: Plant response rating, Ragweed (ragweed [2]; [24]) | Plant response rating, Ragweed (ragweed [2]; [25]) | Plant response rating, Galium (galium; [24]) | Kochia plant response rating (kochia [9]; [27]) | Plant response rating, Pigweed, Palmer (pigweed, palmer [10]; [24]) | Plant response rating, Foxtail, Green (green foxtail [14]; [25]) | Plant response rating, Kochia (kochia [17]; [24]) | Plant response rating, Ryegrass, Italian (ryegrass, Italian [20]; [26]) | Barnyardgrass plant response rating (barnyardgrass [21]; 125 g ai/ha, preemergence)
60: Plant response rating, Barnyardgrass (barnyardgrass [19]; [25])
10: Plant response rating, Corn (corn [7]; [24]) | Plant response rating, Wheat (wheat [13]; [24]) | Ragweed plant response rating (ragweed [15]; [27]) | Plant response rating, Horseweed (horseweed; [24])
30: Blackgrass plant response rating (blackgrass [6]; [27]) | Plant response rating, Horseweed (horseweed; [25])
80: Plant response rating, Ryegrass, Italian (ryegrass, Italian [3]; [25]) | Plant response rating, Ragweed (ragweed [15]; [26]) | Ryegrass, Italian plant response rating (ryegrass, Italian [20]; [27]) | Plant response rating, Soybean (soybean [22]; [26])
0: Plant response rating, Oat, Wild (oat, wild [1]; [24]) | Plant response rating, Blackgrass (blackgrass [4]; [24]) | Plant response rating, Ducksalad (Flood) (ducksalad) | Plant response rating, Sedge, Umbrella (Flood) (sedge, umbrella) | Plant response rating, Corn (corn [11]; [26]) | Corn plant response rating (corn [11]; [27]) | Plant response rating, Barnyardgrass (Flood) (barnyardgrass [12]) | Plant response rating, Rice (Flood) (rice) | Plant response rating, Wheat (wheat [23]; [26]) | Wheat plant response rating (wheat [23]; [27])
50: Plant response rating, Oat, Wild (oat, wild [8]; [26]) | Plant response rating, Foxtail, Green (green foxtail [14]; [24])
20: Plant response rating, Oat, Wild (oat, wild [1]; [25]) | Plant response rating, Ryegrass, Italian (ryegrass, Italian [3]; [24]) | Plant response rating, Corn (corn [7]; [25]) | Oat, Wild plant response rating (oat, wild [8]; [27]) | Plant response rating, Wheat (wheat [13]; [25]) | Plant response rating, Barnyardgrass (barnyardgrass [19]; [24])
40: Soybean plant response rating (soybean [22]; [27])
100: Plant response rating, Soybean (soybean [5]; [24]) | Plant response rating, Soybean (soybean [5]; [25]) | Plant response rating, Galium (galium; [25]) | Plant response rating, Kochia (kochia [9]; [26]) | Plant response rating, Pigweed, Palmer (pigweed, palmer [10]; [25]) | Plant response rating, Pigweed, Palmer (pigweed, palmer [16]; [26]) | Pigweed, Palmer plant response rating (pigweed, palmer [16]; [27]) | Plant response rating, Kochia (kochia [17]; [25]) | Plant response rating, Foxtail, Green (green foxtail [18]; [26]) | Foxtail, Green plant response rating (green foxtail [18]; [27]) | Plant response rating, Barnyardgrass (barnyardgrass [21]; [26])
70: Plant response rating, Blackgrass (blackgrass [4]; [25]) | Plant response rating, Blackgrass (blackgrass [6]; [26])

Reference: US20260262643A1, “HERBICIDAL BENZOXAZINES” (FMC CORPORATION, priority 2022, published 2026)
